Measured values published in patent US20240384268A1, “Oligonucleotides” (Hudson Institute of Medical Research, priority 2021, published 2024).
In the oligonucleotide strings, read from the 5' end, every base follows the letter of its sugar. An asterisk marks phosphorothioate; unmarked linkages are phosphodiester. Other units and linkages are bracketed, terminal groups are in braces. A string of capitals states the bases alone. d = 2'-deoxy (DNA); m = 2'-O-methyl

Target: T1, human TLR7 (Homo sapiens, UniProt Q9NYK1)
T1 construct: HA; host or cells: 293XL-hTLR7-HA (HEK293)
T1 sequence (Q9NYK1 27-1049): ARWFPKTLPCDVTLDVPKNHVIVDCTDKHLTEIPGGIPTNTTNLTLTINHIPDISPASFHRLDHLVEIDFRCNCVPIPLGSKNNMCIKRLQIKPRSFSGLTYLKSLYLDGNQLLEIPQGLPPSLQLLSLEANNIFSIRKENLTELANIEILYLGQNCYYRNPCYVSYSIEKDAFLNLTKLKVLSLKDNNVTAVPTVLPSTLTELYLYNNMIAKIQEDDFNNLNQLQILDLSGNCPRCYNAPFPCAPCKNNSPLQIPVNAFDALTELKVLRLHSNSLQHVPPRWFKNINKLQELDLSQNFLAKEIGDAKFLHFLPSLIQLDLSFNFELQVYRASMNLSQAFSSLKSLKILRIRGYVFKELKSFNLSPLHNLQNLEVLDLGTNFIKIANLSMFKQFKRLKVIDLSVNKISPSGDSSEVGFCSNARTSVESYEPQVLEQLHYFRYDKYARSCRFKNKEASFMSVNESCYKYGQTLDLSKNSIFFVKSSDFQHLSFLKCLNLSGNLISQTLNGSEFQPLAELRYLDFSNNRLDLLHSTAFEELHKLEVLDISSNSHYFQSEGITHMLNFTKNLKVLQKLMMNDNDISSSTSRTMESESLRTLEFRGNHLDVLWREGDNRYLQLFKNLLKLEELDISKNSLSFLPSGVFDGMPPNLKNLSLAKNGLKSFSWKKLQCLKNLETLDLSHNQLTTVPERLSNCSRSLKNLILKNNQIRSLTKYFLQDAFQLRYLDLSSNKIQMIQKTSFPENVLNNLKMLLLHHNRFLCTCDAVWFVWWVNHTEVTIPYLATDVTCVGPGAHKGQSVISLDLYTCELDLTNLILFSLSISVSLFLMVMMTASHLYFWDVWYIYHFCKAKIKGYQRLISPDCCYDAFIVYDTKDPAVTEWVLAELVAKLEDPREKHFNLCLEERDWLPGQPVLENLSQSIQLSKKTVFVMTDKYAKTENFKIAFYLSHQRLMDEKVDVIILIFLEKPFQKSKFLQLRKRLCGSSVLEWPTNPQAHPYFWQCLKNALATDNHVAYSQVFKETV
Experiment: HEK-TLR7 NF-κB-luciferase reporter, R848 stimulation
Assay type: cell-based
Conditions: for TLR7-100 nM: averaged NF-κB-Luciferase relative to R848: HEK-TLR7, 100 nM ASO, percentage of R848 without ASO (Alharbi et al., 2020); for TLR7 100 nM: MOE-modified ASO at 100 nM; for TLR7 100 nM / TLR7 500 nM: averaged NF-κB-Luciferase relative to R848 condition; for TLR7 500 nM: MOE-modified ASO at 500 nM

## mA*mC*mC*mC*mU*T*C*T*C*T*C*T*G*G*T*mC*mC*mC*mA*mU (mA*mC*mC*mC*mU*dT*dC*dT*dC*dT*dC*dT*dG*dG*dT*mC*mC*mC*mA*mU; antisense) [[LINC-PINT]115]
  TLR7-100 nM: averaged NF-κB-Luciferase relative to R848: 43.37%

## mA*mG*mC*mC*mG*A*A*C*A*G*A*A*G*G*A*mG*mC*mG*mU*mC (AGCCGAACAGAAGGAGCGUC; sugars from the 5' end m5 d10 m5, all phosphorothioate, methylation of C not given here) [[LINC-PINT]587 KL]
  TLR7-100 nM: averaged NF-κB-Luciferase relative to R848: 27.70%

## mA*mG*mA*mU*mU*A*T*C*T*T*C*T*T*T*T*mA*mA*mU*mU*mU (AGAUUATCTTCTTTTAAUUU; sugars from the 5' end m5 d10 m5, all phosphorothioate, methylation of C not given here) [[CDKN2B-AS1]2130]
  TLR7-100 nM: averaged NF-κB-Luciferase relative to R848: 37.10%

## mG*mA*mA*mA*mA*G*A*T*T*A*T*C*T*T*C*mU*mU*mU*mU*mA (GAAAAGATTATCTTCUUUUA; sugars from the 5' end m5 d10 m5, all phosphorothioate, methylation of C not given here) [[CDKN2B-AS1]2134]
  TLR7-100 nM: averaged NF-κB-Luciferase relative to R848: 34.44%

## GCCCATCCATGAGGTCCTGG (antisense; 2'-MOE modified, pattern not given here) [CTNN2B-2545 MOE]
  TLR7 100 nM: 0.340
  TLR7 500 nM: 0.124

## mA*mA*mA*mA*mG*A*T*T*A*T*C*T*T*C*T*mU*mU*mU*mA*mA (AAAAGATTATCTTCTUUUAA; sugars from the 5' end m5 d10 m5, all phosphorothioate, methylation of C not given here) [[CDKN2B-AS1]2133]
  TLR7-100 nM: averaged NF-κB-Luciferase relative to R848: 47.41%

## AGTCGTAGTTGCTTCCTAAC (antisense; 2'-MOE modified, pattern not given here) [MB21D1-1181 MOE]
  TLR7 100 nM: 0.494
  TLR7 500 nM: 0.228

## mG*mU*mC*mA*mA*A*C*C*T*A*G*A*A*A*G*mA*mA*mG*mC*mA (mG*mU*mC*mA*mA*dA*dC*dC*dT*dA*dG*dA*dA*dA*dG*mA*mA*mG*mC*mA; antisense) [[CDKN2B-AS1]1528]
  TLR7-100 nM: averaged NF-κB-Luciferase relative to R848: 23.64%

## mC*mC*mA*mU*mG*T*C*C*C*A*G*G*C*C*T*mC*mC*mA*mG*mU (CCAUGTCCCAGGCCTCCAGU; sugars from the 5' end m5 d10 m5, all phosphorothioate, methylation of C not given here) [[CDKN2B-AS1]2227]
  TLR7-100 nM: averaged NF-κB-Luciferase relative to R848: 41.39%

## mU*mG*mA*mC*mA*T*T*T*C*G*T*G*G*C*T*mC*mC*mU*mA*mC (mU*mG*mA*mC*mA*dT*dT*dT*dC*dG*dT*dG*dG*dC*dT*mC*mC*mU*mA*mC; antisense) [[LINC-PINT]523 KL]
  TLR7-100 nM: averaged NF-κB-Luciferase relative to R848: 33.56%

## mU*mU*mA*mA*mA*T*A*A*T*C*T*A*G*T*T*mU*mG*mA*mA*mG (UUAAATAATCTAGTTUGAAG; sugars from the 5' end m5 d10 m5, all phosphorothioate, methylation of C not given here) [[CDKN2B-AS1]132]
  TLR7-100 nM: averaged NF-κB-Luciferase relative to R848: 25.66%

## mG*mA*mU*mG*mG*T*T*C*C*A*G*T*C*C*C*mU*mC*mU*mU*mC (GAUGGTTCCAGTCCCUCUUC; antisense; sugars from the 5' end m5 d10 m5, all phosphorothioate, methylation of C not given here) [[LINC-PINT]1497.1]
  TLR7-100 nM: averaged NF-κB-Luciferase relative to R848: 22.32%

## mU*mG*mG*mC*mG*T*A*G*T*T*T*C*T*C*T*mU*mC*mC*mU*mC (mU*mG*mG*mC*mG*dT*dA*dG*dT*dT*dT*dC*dT*dC*dT*mU*mC*mC*mU*mC; antisense) [[LINC-PINT]937.1]
  TLR7-100 nM: averaged NF-κB-Luciferase relative to R848: 32.81%

## mG*mU*mC*mU*mC*C*T*C*C*A*C*A*C*C*C*mU*mU*mC*mU*mC (mG*mU*mC*mU*mC*dC*dT*dC*dC*dA*dC*dA*dC*dC*dC*mU*mU*mC*mU*mC; antisense) [[LINC-PINT]126]
  TLR7-100 nM: averaged NF-κB-Luciferase relative to R848: 25.01%

## mU*mC*mU*mC*mU*G*G*T*C*C*C*A*T*C*C*mC*mU*mU*mC*mU (UCUCUGGTCCCATCCCUUCU; antisense; sugars from the 5' end m5 d10 m5, all phosphorothioate, methylation of C not given here) [[LINC-PINT]108]
  TLR7-100 nM: averaged NF-κB-Luciferase relative to R848: 78.25%

## TGGGCTGGAATCCGAGTTAT (antisense; 2'-MOE modified, pattern not given here) [EGFR-4705 MOE]
  TLR7 100 nM: 0.270
  TLR7 500 nM: 0.095

## mC*mA*mA*mG*mC*C*C*C*A*G*C*G*T*T*C*mC*mU*mC*mC*mG (mC*mA*mA*mG*mC*dC*dC*dC*dA*dG*dC*dG*dT*dT*dC*mC*mU*mC*mC*mG; antisense) [[LINC-PINT]83.1]
  TLR7-100 nM: averaged NF-κB-Luciferase relative to R848: 45.20%

## mC*mA*mC*mU*mG*T*A*T*T*T*T*A*T*T*A*mC*mA*mG*mA*mA (mC*mA*mC*mU*mG*dT*dA*dT*dT*dT*dT*dA*dT*dT*dA*mC*mA*mG*mA*mA; antisense) [[LINC-PINT]2990]
  TLR7-100 nM: averaged NF-κB-Luciferase relative to R848: 58.13%

## mC*mA*mG*mG*mC*C*T*C*C*A*G*T*G*T*C*mU*mU*mC*mU*mC (mC*mA*mG*mG*mC*dC*dT*dC*dC*dA*dG*dT*dG*dT*dC*mU*mU*mC*mU*mC; antisense) [[CDKN2B-AS1]2219]
  TLR7-100 nM: averaged NF-κB-Luciferase relative to R848: 54.11%

## mU*mG*mU*mU*mU*C*C*C*C*G*G*A*G*A*G*mC*mA*mA*mU*mG (UGUUUCCCCGGAGAGCAAUG; antisense; sugars from the 5' end m5 d10 m5, all phosphorothioate, methylation of C not given here) [[LINC-PINT]501 KL]
  TLR7-100 nM: averaged NF-κB-Luciferase relative to R848: 30.90%

## mU*mU*mG*mU*mG*A*A*A*A*G*A*T*T*A*T*mC*mU*mU*mC*mU (mU*mU*mG*mU*mG*dA*dA*dA*dA*dG*dA*dT*dT*dA*dT*mC*mU*mU*mC*mU) [[CDKN2B-AS1]2138]
  TLR7-100 nM: averaged NF-κB-Luciferase relative to R848: 35.02%

## mA*mG*mA*mA*mA*G*A*A*G*C*A*A*A*G*A*mU*mU*mC*mA*mA (AGAAAGAAGCAAAGAUUCAA; sugars from the 5' end m5 d10 m5, all phosphorothioate, methylation of C not given here) [[CDKN2B-AS1]1519]
  TLR7-100 nM: averaged NF-κB-Luciferase relative to R848: 42.99%

## mA*mA*mU*mA*mU*C*T*G*C*T*G*C*C*C*A*mC*mC*mU*mU*mC (mA*mA*mU*mA*mU*dC*dT*dG*dC*dT*dG*dC*dC*dC*dA*mC*mC*mU*mU*mC; antisense) [[CDKN2B-AS1]832]
  TLR7-100 nM: averaged NF-κB-Luciferase relative to R848: 43.66%

## mG*mG*mA*mU*mU*A*A*A*A*C*A*G*A*T*T*mA*mA*mU*mA*mC (GGAUUAAAACAGATTAAUAC; sugars from the 5' end m5 d10 m5, all phosphorothioate, methylation of C not given here) [[CDKN2B-AS1]1774]
  TLR7-100 nM: averaged NF-κB-Luciferase relative to R848: 27.16%

## mC*mC*mC*mU*mA*A*T*G*C*T*T*T*C*C*T*mC*mU*mC*mC*mA (mC*mC*mC*mU*mA*dA*dT*dG*dC*dT*dT*dT*dC*dC*dT*mC*mU*mC*mC*mA; antisense) [[LINC-PINT1877 KL]
  TLR7-100 nM: averaged NF-κB-Luciferase relative to R848: 58.39%

## GCTGACAAAGATTCACTGGT (antisense; 2'-MOE modified, pattern not given here) [HPRT-1353 MOE]
  TLR7 100 nM: 0.375
  TLR7 500 nM: 0.190

## mU*mA*mA*mA*mA*T*A*A*G*G*G*G*A*A*T*mA*mG*mG*mG*mG (mU*mA*mA*mA*mA*dT*dA*dA*dG*dG*dG*dG*dA*dA*dT*mA*mG*mG*mG*mG) [[CDKN2B-AS1]80]
  TLR7-100 nM: averaged NF-κB-Luciferase relative to R848: 40.95%

## mA*mG*mG*mC*mC*T*C*C*A*G*T*G*T*C*T*mU*mC*mU*mC*mC (mA*mG*mG*mC*mC*dT*dC*dC*dA*dG*dT*dG*dT*dC*dT*mU*mC*mU*mC*mC; antisense) [[CDKN2B-AS1]2218]
  TLR7-100 nM: averaged NF-κB-Luciferase relative to R848: 44.73%

## mC*mA*mU*mC*mC*C*T*T*C*T*G*C*T*G*C*mC*mA*mA*mG*mC (mC*mA*mU*mC*mC*dC*dT*dT*dC*dT*dG*dC*dT*dG*dC*mC*mA*mA*mG*mC; antisense) [[LINC-PINT]98]
  TLR7-100 nM: averaged NF-κB-Luciferase relative to R848: 54.34%

## mA*mG*mG*mA*mU*T*A*A*A*A*C*A*G*A*T*mU*mA*mA*mU*mA (mA*mG*mG*mA*mU*dT*dA*dA*dA*dA*dC*dA*dG*dA*dT*mU*mA*mA*mU*mA) [[CDKN2B-AS1] 1775]
  TLR7-100 nM: averaged NF-κB-Luciferase relative to R848: 36.28%
